Earlier results on one molecule are cited in paper PMC3203620 (The Journal of Organic Chemistry, 2011).

The test system of one data set is Mt. Conditions: due to poor uptake.
Data set [1] deals with Plasmodium falciparum DXR.

For `O=CN(O)CCCP(=O)(O)O` [Compound 1, fosmidomycin], the pharmacokinetic properties entry is listed as “poor pharmacokinetic properties”. Moreover, in the data set on Mt, the “activity on Mt at the whole cell level” value was “inactive”. The “activity in vivo in P. vinckei infected mice” value in the data set on P. vinckei is on record as “potent inhibitor”. Moreover, the “inhibition of Plasmodium falciparum DXR in vitro” value in data set [1] is given as “potent inhibitor”.
